Measured values: publication PMC9928118, “Funneling modulatory peptide design with generative models: Discovery and characterization of disruptors of calcineurin protein-protein interactions” (PLOS Computational Biology, 2023)

Columns and labels:
[1] = test system: GST-tagged Cn; assay: PEPperPRINT peptide microarray binding assay with GST-tagged Cn; conditions: max over the duplicate spots (Location on chip)
[2] = test system: GST-tagged Cn; assay: as above; conditions: GST-tagged Cn, mean over the duplicate spots (Location on chip)
How it was run: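 Qualitative binding: peptides printed on a PEPperPRINT microarray were incubated overnight at 4 °C with 1 mg/ml GST-tagged Cn, then detected with Alexa-Fluor 647 anti-GST antibody. Log fluorescence was baseline-corrected, averaged over duplicate spots, Z-normalized and averaged across five repeats.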

Row | Chip Fluorescence (max) [1] | Chip Fluorescence (mean) [2] | Sequence
1 | 2.528 | 0.4111 | ASSANPEITVTPAELP [SeqRBMlowT_4424]
2 | 2.175 | -0.3019 | DCIGFCSVPVMYAPNH [Seqrandom_1239]
3 | 2.266 | -0.878 | EPYVAFFYQFSHDPKS [Seqshuffled_9939]
4 | 2.434 | 1.1019 | ESRYRRFRQFQAPKVD [Seqshuffled_9523]
5 | 1.993 | 0.3576 | FQTDAPTIPIDQAPIC [SeqRBM_9788]
6 | 2.049 | 0.4694 | FTMKFAWALPQCYVHC [Seqrandom_9941]
7 | 2.042 | 0.4498 | GAYMCPFMSWQDCGQR [SeqRBMlowT_4796]
8 | 2.448 | 0.4497 | GFETTPSIVVHVCEED [SeqRBMlowT_1939]
9 | 2.523 | -0.2851 | GGPGTPSRQGQTAAPS [SeqRBM_5534]
10 | 2.314 | -0.03327 | GGPSTPGRQNNPLAPS [SeqRTS1_Zymoseptoria_tritici]
11 | 2.095 | 0.9366 | GNDDCPEVVVHPPEED [SeqRBMlowT_7697]
12 | 2.018 | 0.833 | GNKEFSPLNVEGLSGN [Seqshuffled_9463]
13 | 2.002 | -0.05077 | GSLLIPHCDMSAGGSY [SeqRBM_2528]
14 | 2.523 | 0.6141 | GTDLRQQTAAQPNDGA [Seqshuffled_4362]
15 | 2.458 | -1.666 | HCRFEWPFGFSMIRYP [Seqrandom_9994]
16 | 2.151 | -0.1329 | HDLQCVINLHENACKT [Seqrandom_9996]
17 | 1.914 | 0.6897 | HIIIVWAVSEVKYVQL [Seqrandom_9992]
18 | 2.294 | 0.3342 | HPYMGPKIQFHSGGRK [SeqRBM_457]
19 | 2.177 | 0.373 | HSKLIPKLSIQSPVEH [SeqRBMlowT_3447]
20 | 2.217 | 0.4725 | HVSSSPDVTLKPPQHR [SeqRBMlowT_2147]
21 | 1.911 | 0.7325 | KADYTISLILHYDAIE [Seqshuffled_9660]
22 | 2.385 | -0.1535 | KAYMCPFMQFIDGGRR [SeqRBMlowT_502]
23 | 2.568 | 0.9697 | KAYMCPYGSFTYGGRR [SeqRBM_3412]
24 | 1.932 | 0.7869 | KAYMCPYMQFIAGGRK [SeqRBM_8989]
25 | 2.501 | 1.763 | KAYMCPYMQFIEGGRR [SeqSFB3_Ictalurus_punctatus]
26 | 2.02 | 0.8271 | KAYMNPFMQFIDGGRK [SeqRBMlowT_6686]

Row | Chip Fluorescence (max) [1] | Chip Fluorescence (mean) [2] | Sequence
27 | 2.355 | 0.2344 | KELANLRVTPPDNGTL [SeqRBM_2710]
28 | 2.529 | -0.1981 | KKMAPPAINIDPAPTN [SeqRBMlowT_321]
29 | 2.045 | 0.511 | KKMSPPCISVHPPDED [SeqRBMlowT_7695]
30 | 2.125 | -0.7518 | KKMSPPCITITPAPGA [SeqRBMlowT_7625]
31 | 2.283 | 1.192 | KNARGPLIIIHPMEED [SeqRBM_1913]
32 | 2.115 | 0.728 | KSKRIPKLSVVSPVHH [SeqRBM_6422]
33 | 1.904 | 0.6608 | LLDNVPAVHVHDMGGH [SeqRBM_9035]
34 | 2.223 | 0.2546 | LMDLCPVVRLQIISAL [SeqRBM_7616]
35 | 2.3229 | -0.4845 | LNDEIPEVRLNIISAL [SeqRBMlowT_4170]
36 | 2.2011 | -0.2367 | LRDEVPEVRLNIISDL [SeqRBM_180]
37 | 2.172 | 0.3343 | LSLYVNALGMESFTIS [SeqRBM_9141]
38 | 1.968 | -0.4808 | LSSSNPEITVTPAELD [SeqRBMlowT_6234]
39 | 2.1787 | 1.818 | NNLAINDVTAGDRGCY [SeqRBM_1373]
40 | 1.973 | -0.5544 | PGQMQPSINVMAEKNP [SeqRBM_977]
41 | 2.284 | 0.996 | PMKTRGLYGWPPCAKW [Seqrandom_5226]
42 | 2.3848 | -0.254 | PNKICGQRSFDGEHQN [Seqshuffled_9648]
43 | 2.053 | -0.5716 | PSHSIPKHSWESAVEH [SeqRBM_3394]
44 | 2.16 | 0.7614 | PSIYQEVLGIGNFSLS [SeqRBMlowT_4899]
45 | 2.474 | -0.3855 | PSLYENALGMESFTIS [SeqRBMlowT_2807]
46 | 2.037 | 0.7051 | PSLYINALGIESFTLS [SeqRBMlowT_6967]
47 | 2.2337 | 0.992 | PTNGIPEMQRNSAKSA [Seqshuffled_9538]
48 | 2.2853 | 0.7956 | QWSLGVGIVITVTETM [SeqRBM_1755]
49 | 2.119 | 0.6521 | RAYINPFMQFTFDSNK [SeqRBMlowT_4738]
50 | 2.512 | 1.346 | RAYKNPFMQFDLDSSL [SeqRBM_8076]
51 | 1.921 | 0.3113 | RAYMNPSVCFTDGGAR [SeqRBM_6787]
52 | 2.558 | -0.5027 | RFYINPFVQFSDGGNN [SeqRBM_1053]

Row | Chip Fluorescence (max) [1] | Chip Fluorescence (mean) [2] | Sequence
53 | 2.0812 | -0.09268 | RMYINPFVQFIDGGNR [SeqSFB3_Mycena_chlorophos]
54 | 1.97 | 0.5231 | RNPESPVLELEGHSAS [SeqRBMlowT_6180]
55 | 2.243 | 1.113 | RNPESPVLELEGHSSP [SeqRBMlowT_6390]
56 | 2.128 | -0.2767 | RNPGSPVLVLEGHSAA [SeqYPL247C_Zygosaccharomyces_parabailii]
57 | 2.447 | 1.08 | RNPGTFLLTLRGHKKQ [SeqRBMlowT_5813]
58 | 2.013 | 0.19 | RQPGQALLELRGHSAS [SeqRBMlowT_7735]
59 | 2.053 | 0.5615 | RQPGSPVLELSGHSAN [SeqRBMlowT_5862]
60 | 2.2877 | 0.1659 | RSKFIPKLSLQSPVHH [SeqRBMlowT_1791]
61 | 2.523 | 0.1039 | RTYINPFMLFEDMGSR [SeqRBM_7588]
62 | 2.196 | 0.8441 | RTYINPFMQFNRGGRK [SeqRBM_3856]
63 | 1.896 | 1.243 | RTYINPFMQFTYDGRR [SeqRBMlowT_4071]
64 | 2.401 | 0.2486 | SDVAQQCLPSQHWSCW [Seqrandom_9997]
65 | 2.363 | 0.8738 | SFWTNPQFIITLQEED [SeqRBMlowT_7307]
66 | 2.496 | 0.9732 | SSLYENALGIESFTLS [SeqRBMlowT_2888]
67 | 2.328 | -0.1624 | SSMAQPAINIDFAPTN [SeqRBMlowT_2450]
68 | 2.217 | -0.01901 | SSSAAPEIVVSKPEHN [SeqRBMlowT_9785]
69 | 2.477 | -0.1064 | STASLPSFNFSFLTSS [SeqNUP153_Antrostomus_carolinensis]
70 | 2.383 | -0.4537 | STPLPQGAPISPNTLA [Seqshuffled_9522]
71 | 2.106 | 0.4296 | STSSLPTFSFSSPLSS [SeqRBMlowT_2357]
72 | 2.053 | 0.5882 | TFFINPQFKASLTEMD [SeqRBM_564]
73 | 2.027 | 0.3935 | TFMMNPQYRLYKSVSP [SeqRBM_6553]
74 | 1.877 | 0.6511 | TFNNNPQATVRRTDID [SeqRBM_1961]
75 | 2.261 | 0.7622 | TFWANPQITITLAELD [SeqRBMlowT_7358]
76 | 2.207 | 0.1767 | TFWMNPQYRITLEEPD [SeqRBMlowT_2265]
77 | 2.1472 | 0.877 | TFWSNPQFKITLEEPD [SeqRBMlowT_5528]
78 | 2.274 | 1.226 | TFWSNPQFRLKLEDPD [SeqRBMlowT_6883]

Row | Sequence | Chip Fluorescence (max) [1] | Chip Fluorescence (mean) [2]
79 | PNGSNPETVIKPDWTE [SeqRBM_275] | 1.983 | 0.6822
80 | RAYDNPVFSFTFDSKG [SeqRBM_7566] | 2.445 | 0.4256
